Assay results as given in US20120208776A1 (priority 2002, published 2012).
pIC50: −log10 of the molar value. Read-outs that look alike come from different tables or passages of the source.

Legend:
MCF7 cells [1] = assay: Cell proliferation, cell count (Coulter Counter); format: cell-based, human; settings: for IC50 / pIC50: MCF7 cells, 96 h; for pIC50: value in parentheses, read-out: IC50
MCF7 cells [2] = assay: Cell-cycle analysis by DNA flow cytometry; format: cell-based, human; settings: about 40 μg/ml
Method: (§1) Synchrony: To synchronize the cells, 3×10^5 cells were plated onto 10 cm dishes and grown for 2 days in DMEM supplemented with 10% fetal bovine serum.
(§2) After incubation for 1-3 days, the supernatant was collected, and the cells were trypsinized, collected, and washed with phosphate buffered saline (PBS) containing 5% FBS. Cell pellets were re-suspended in 1 ml of PBS plus 5% FBS. Thereafter, 5 ml of 70% ethanol were added drop-wise, while vortexing the tube, and the mixture was stored at 4° C. Cells were centrifuged, washed with PBS plus 5% FBS, and re-suspended in 400 μl of propidium iodide (0.1 mg/ml) (Sigma Chemical Co.). 400 μl (2 mg/ml) of RNase (Sigma Chemical Co.) were added, and the cells were incubated in the dark at room temperature for 30 min.

MDA-MB-453 cells [3] = assay: Cell proliferation, cell count (Coulter Counter); settings: MDA-MB-453 (FIG. 10)
Method: For the cell count assay, breast cancer cells were seeded, in triplicate, at 2×10^4 cells per well, in 24- or 96-well plates.
(§3) For the Coulter counter assay, cells were seeded at 2×10^4 cells per well in 24 well plates (0.875 cm diameter) as described previously. […] Control and treated cells were compared using the student's t-test (p<0.05). For cell cycle analysis the cells were plated (3×10^5) onto 6 cm dishes and allowed to attach for 24 hours. […] After 24 hours the cells were analyzed by DNA flow cytometry, as described previously.

MDA-MB-453 cells [4] = assay: Combination with chemotherapy agents, cell count, combination index (CI); format: cell-based, human
MDA-MB-453 cells [5] = assay: Cell-cycle analysis by DNA flow cytometry; format: cell-based, human; settings: 48 hrs
Method: as §1, §2

Na^+-K^+-ATPase = assay: Enzymatic assay of adenosine 5′-triphosphatase; format: biochemical; settings: 20 μM
Method: Enzymatic assay of adenosine 5′-triphosphatase. The enzymatic assay of ATPase (adenosine 5′-triphosphatase, EC 3.6.1.3) followed the Sigma Prod. […] [P] was determined by the Taussky-Shorr method.

MDA-MB-453 cells [6] = assay: Combination of agents, MTT assay, combination index
Method: Calculating the Combination Index. To determine the Combination Index (CI), 1) the Na^+-K^+-ATPase enzyme or 2) MDA-MB-453 cells were exposed to all combinations of 3, 4 or 5 concentrations of each of the agents tested and a solvent control. […] The results of the enzymatic assay of ATPase or MTT assay were analyzed for possible synergistic effects using the median effect principle. Variable ratios of drugs were employed and mutually exclusive equations were assumed.
Calculating the Combination Index.
The simvastatin was obtained from Sigma of St. Louis, Mo. The concentrations tested in the present example were 0, 0.2, 2, 5, and 20 μg/ml actein and 0, 0.8, 4, 20 and 40 μg/ml simvastatin.

[7] = target: NTPase/helicase of hepatitis C virus (Hepatitis C virus genotype 1a, UniProt P27958); settings: competitive inhibition of ATP binding; cited from earlier work
MDA-MB-453 cells [8] = assay: MTT assay, 96 hours; format: cell-based, human; settings: Homo sapiens, MTT, 96 h, read-out: IC50
Method: as §3

NTPase/helicase of hepatitis C virus, sequence (P27958 1203-1364): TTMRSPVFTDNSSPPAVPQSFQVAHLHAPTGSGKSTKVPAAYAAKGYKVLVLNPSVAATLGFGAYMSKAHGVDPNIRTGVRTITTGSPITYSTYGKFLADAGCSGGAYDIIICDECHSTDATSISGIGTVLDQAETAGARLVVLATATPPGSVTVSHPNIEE

## COc1ccc(/C=C/C(=O)O)cc1O [isoferulic, isoferulic acid]
MCF7 cells [1]
  effect on the growth of MCF7 cells: active in suppressing the growth

## CC(=O)O[C@@H]1C[C@@]23C[C@@]24CC[C@H](O[C@@H]2OC[C@@H](O)[C@H](O)[C@H]2O)C(C)(C)[C@@H]4CC=C3[C@]2(C)C[C@@H]3O[C@@]4(O)[C@H](OC(C)(C)[C@H]4O)[C@@H](C)[C@@H]3[C@@]12C [cimiracemoside A]
MCF7 cells [1]
  IC50: 41 µg/mL
  pIC50: 4.21
MCF7 cells [2]
  cell-cycle arrest: induced cell-cycle arrest at G1

## C[C@@H]1C[C@@H]2O[C@@]3(O[C@@H]2C(C)(C)O)[C@H](O)[C@@]2(C)[C@@H]4CC[C@H]5C(C)(C)[C@@H](O)CC[C@@]56C[C@@]46CC[C@]2(C)[C@@H]13 [Cimigenol, cimigenol]
MDA-MB-453 cells [3]
  effect on the growth of human breast cancer cells: less active than cimigenol glycoside

## CC(=O)O[C@H]1C(=O)[C@@]2(C)[C@H]([C@H](OC(=O)c3ccccc3)[C@]3(O)C[C@H](OC(=O)[C@H](O)[C@@H](NC(=O)c4ccccc4)c4ccccc4)C(C)=C1C3(C)C)[C@]1(OC(C)=O)CO[C@@H]1C[C@@H]2O [paclitaxel, reference compound]
MDA-MB-453 cells [4]; tax 1
  number of viable cells, average: 118624
MDA-MB-453 cells [4]; tax 4
  number of viable cells, average: 37060.67
MDA-MB-453 cells [4]; tax .25 (nM)
  number of viable cells, average: 198416.3
MDA-MB-453 cells [5]; (b) Taxol 1 nM
  G1 (%): 71.0%
  G2/M (%): 17.0%
  S (%): 10.8%
  Sub G1 (%): 1.0%
Na^+-K^+-ATPase
  percent inhibition of in vitro Na^+-K^+-ATPase activity: 21.7%
MDA-MB-453 cells [6]; paclitaxel 1 nM alone
  cell survival: 63.2%
[7]
  pIC50: ~4.80

## CC(=O)O[C@@H]1C[C@@]23C[C@@]24CC[C@H](O[C@@H]2OC[C@@H](O)[C@H](O)[C@H]2O)C(C)(C)[C@@H]4CC[C@H]3[C@]2(C)C[C@@H]3O[C@@]4(C[C@@H](C)[C@@H]3[C@@]12C)OC[C@@]1(C)O[C@@H]41 [23-epi-26-deoxyactein]
MCF7 cells [1]
  IC50: 21 µg/mL
  pIC50: 4.49
MCF7 cells [2]
  cell-cycle arrest: induced cell-cycle arrest at G1

## cimifugoside
MCF7 cells [1]
  IC50: 22 µg/mL
  pIC50: 4.44

## COc1cccc2c1C(=O)c1c(O)c3c(c(O)c1C2=O)C[C@@](O)(C(=O)CO)C[C@@H]3O[C@H]1C[C@H](N)[C@H](O)[C@H](C)O1 [Doxorubicin, doxorubicin, reference compound]
MDA-MB-453 cells [5]; (c) Doxorubicin 0.1 μg/mL
  G1 (%): 30.1%
  G2/M (%): 61.7%
  S (%): 5.6%
  Sub G1 (%): 2.5%

## 25-acetyl-7,8-didehydrocimigenol 3-O-β-D-xylopyranoside
Solubility (observation)
  solubility: sufficiently soluble

## CCC(C)(C)C(=O)O[C@H]1C[C@@H](C)C=C2C=C[C@H](C)[C@H](CC[C@@H]3C[C@@H](O)CC(=O)O3)[C@H]21 [simvastatin]
MDA-MB-453 cells [8]
  pIC50: 4.67
MDA-MB-453 cells [6]; Homo sapiens, MDA-MB-453, read-out: percent viable cells
  viability at 20 µg/mL: 83.1%
MDA-MB-453 cells [6]; simvastatin 40 ug/ml alone
  cell survival: 58.2%

## COc1cc(/C=C/C(=O)O)ccc1O [ferulic, ferulic acid]
MCF7 cells [1]
  effect on the growth of MCF7 cells: active in suppressing the growth

## O=c1[nH]cc(F)c(=O)[nH]1 [5-FU, 5-fluorouracil, reference compound]
MDA-MB-453 cells [5]; (c) 5-FU 0.02 μg/mL
  G1 (%): 28.9%
  G2/M (%): 20.3%
  S (%): 47.6%
  Sub G1 (%): 3. %
